Experimental data: US20080311036A1, “Imaging of Neural and Organ Injury or Damage” (UNIVERSITY OF FLORIDA RESEARCH FOUNDATION, INC., priority 2005, published 2008)

Assays:
[1] = in vivo half-life after intravenous administration
Protocol: To enhance the brain residency of the selected “inhibitor-ligands,” a pro-drug strategy that promotes the “trapping” of their precursors in the CNS are evaluated (Prokai et al., 2000). […] The following scheme outlines the method employed to the selected inhibitor-ligands (see FIG. 5).

calpain = experiment: in situ calpain inhibition in SH-SY5Y cells challenged with maitotoxin, SBDP145 by Western blot; assay type: cell-based; conditions: SH-SY5Y neuroblastoma cells, maitotoxin 0.3 nM, read-out: IC50 for blocking SBDP145
Protocol: The synthesized promoiety-conjugates Compound 1 and Compound 2, will be tested for oxidation stability at 37° C. in buffer (pH 7.4), rat plasma and rat-brain homogenate to probe the kinetics of the expected conversion to the pyridinium-ion intermediates. […] Compound 1 for calpain and Compound 2 will be further tested in in situ calpain and caspase inhibition analysis in cell culture. This may be important since both proteases are intracellular, so for the in vivo uses of the inhibitor-ligands, compounds must have the ability to penetrate cells and retain potency while inside cells. We will use neuroblastoma cell line SH-SY5Y, which can be manipulated to produce calpain-activation and necrosis with a neurotoxin maitotoxin (0.3 nM, Calbiochem) or caspase activation and apoptosis with calcium-chelator EGTA (5 mM) as we have shown before (McGinnis, Wang, Gnegy, (1999) J. Neurochem. 72, 1853-1863). Importantly the protease-produced spectrin breakdown products SBDP150 and SBDP145 (with maitotoxin) and SBDP150 and SBDP120 (with EGTA) are readily produced and quantitatively detected by Western blot analysis, which parallel the formation of SBDP's in brain injury in vivo. Prototype calpain inhibitor SJA6017 blocked SBDP145 at IC50 of 0.2 μM, while caspase inhibitor z-D-DCB blocks SBDP120 at IC50 of 5 μM. […]

[2] = known calpain inhibitors; cited from earlier work

Compound | in vivo half-life [1] | IC50 (calpain) | crossing of cell membranes [2]
CC(C)C[C@@H](C=O)NC(=O)[C@@H](NS(=O)(=O)c1ccc(F)cc1)C(C)C [SJA-6017] | ca. 11 min | 200 nM | –
CC(=O)N[C@@H](CC(C)C)C(=O)N[C@@H](CC(C)C)C(=O)N[C@H](C=O)CCCNC(=N)N [leupeptin, N-acetyl-Leu-Leu-argininal] | – | – | cross cell membranes only poorly
